# Experimental data as given in patent US9580411B2, “Substituted sulfonamide compounds” (Hoffmann-La Roche Inc., priority 2012, dated 2017).
# Target: hTRPA1 (Homo sapiens (Human), UniProt O75762)
# Experiment: IC50 determination on human TRPA1 channel, Hamamatsu FDSS calcium fluorescence, CHO cells
# Format: cell-based
# Conditions: CHO cells expressing human TRPA1; block of cinnamaldehyde induced calcium influx; Hill coefficient fixed to 1.5; read-out: hTRPA1 AUC IC50
# Method: IC50s (effective concentration) of compounds on the human TRPA1 channel were determined using a Hamamatsu FDSS fluorescence plate reader. CHO cells expressing human TRPA1 were plated into 384-well plates, incubated overnight at 37° C., and loaded with BD calcium indicator dye for 1 hr at 37° C. followed by 15 minutes at room temperature. The assay buffer was Hank's Balanced Salt Solution (HBSS) containing 20 mM HEPES (pH readjusted to 7.4) along with 0.02% BSA.
# Following dye load and plate cool down, compounds were added to the cells using the FDSS while monitoring fluorescence to determine whether any of the test compounds have TRPA1 agonist activity. Plates were then incubated with compound for 20 minutes at room temperature prior to adding agonist. Following this incubation, […] cinnamaldehyde was added to all wells of the plate and block of this cinnamaldehyde induced calcium influx was measured.
# Fixing the Hill coefficient will generally reduce variability of the IC50 determination. The IC50s were examined by eye to make sure the MIN and MAX points were set correctly prior to validation of the results.
# hTRPA1, sequence (O75762 whole entry): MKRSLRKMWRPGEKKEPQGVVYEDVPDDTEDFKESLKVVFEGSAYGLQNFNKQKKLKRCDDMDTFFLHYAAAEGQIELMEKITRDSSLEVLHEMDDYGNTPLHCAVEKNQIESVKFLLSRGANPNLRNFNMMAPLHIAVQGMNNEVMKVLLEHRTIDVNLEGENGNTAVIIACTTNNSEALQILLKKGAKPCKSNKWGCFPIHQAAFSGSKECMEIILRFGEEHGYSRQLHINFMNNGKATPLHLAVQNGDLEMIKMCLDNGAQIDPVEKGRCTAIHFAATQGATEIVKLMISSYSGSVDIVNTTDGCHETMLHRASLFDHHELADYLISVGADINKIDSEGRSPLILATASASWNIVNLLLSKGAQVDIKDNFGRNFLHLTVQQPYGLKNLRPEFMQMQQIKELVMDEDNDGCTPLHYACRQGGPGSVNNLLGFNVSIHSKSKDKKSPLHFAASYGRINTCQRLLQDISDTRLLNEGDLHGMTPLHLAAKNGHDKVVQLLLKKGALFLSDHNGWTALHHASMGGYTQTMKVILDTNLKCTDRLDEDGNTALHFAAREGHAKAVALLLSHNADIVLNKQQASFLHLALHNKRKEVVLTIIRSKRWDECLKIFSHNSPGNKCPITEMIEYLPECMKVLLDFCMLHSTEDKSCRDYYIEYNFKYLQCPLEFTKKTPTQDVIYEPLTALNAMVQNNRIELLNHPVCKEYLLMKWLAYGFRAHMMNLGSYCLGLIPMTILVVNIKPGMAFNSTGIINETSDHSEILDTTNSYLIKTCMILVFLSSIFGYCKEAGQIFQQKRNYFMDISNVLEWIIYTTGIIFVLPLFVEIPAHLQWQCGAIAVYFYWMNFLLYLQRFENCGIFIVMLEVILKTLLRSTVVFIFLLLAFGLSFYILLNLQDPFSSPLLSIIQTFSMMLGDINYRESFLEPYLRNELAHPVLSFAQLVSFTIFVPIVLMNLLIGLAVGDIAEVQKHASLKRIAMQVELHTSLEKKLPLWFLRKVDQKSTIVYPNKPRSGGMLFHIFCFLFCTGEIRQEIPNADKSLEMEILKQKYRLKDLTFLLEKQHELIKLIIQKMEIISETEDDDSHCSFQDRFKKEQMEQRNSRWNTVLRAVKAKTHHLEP
row,SMILES,IC50 [µM]
1,"CC(C)N(CC(=O)NCc1cccc(-c2ccc(C(F)(F)F)cc2)c1)S(=O)(=O)c1ccn(C)n1 [Example 82, 2-(N-Isopropyl-1-methyl-1H-pyrazole-3-sulfonamido)-N-((4′-(trifluoromethyl)biphenyl-3-yl)methyl)acetamide]",2.4
2,"O=C(CN(c1ccc(F)cc1)S(=O)(=O)c1ccc(F)cc1)NCc1cc(-c2ccc(C(F)(F)F)nc2)ncn1 [Example 86, 2-(4-fluoro-N-(4-fluorophenyl)phenylsulfonamido)-N-((6-(6-(trifluoromethyl)pyridin-3-yl)pyrimidin-4-yl)methyl)acetamide]",0.009
3,"CC(C)N(CC(=O)NCc1cc(N2CCC(F)(F)CC2)ncn1)S(=O)(=O)c1ccc(F)cc1 [Example 81, N-((6-(4,4-Difluoropiperidin-1-yl)pyrimidin-4-yl)methyl)-2-(4-fluoro-N-isopropylphenylsulfonamido)acetamide]",3
4,"CC(C)N(C1(C(=O)NCc2cc(-c3ccc(C(F)(F)F)nc3)ncn2)CC1)S(=O)(=O)c1ccc(F)cc1 [Example 84, 1-(4-Fluoro-N-isopropylphenylsulfonamido)-N-((6-(6-(trifluoromethyl)pyridin-3-yl)pyrimidin-4-yl)methyl)cyclopropanecarboxamide]",0.029
5,"CC(C)N(CC(=O)NCc1cccc(N2CCCC2)c1)S(=O)(=O)c1ccc(F)cc1 [Example 77, 2-(4-fluoro-N-isopropylphenylsulfonamido)-N-(3-(pyrrolidin-1-yl)benzyl)acetamide]",0.883
6,"CC(C)N(CC(=O)NCc1cccc(C2CC2)c1)S(=O)(=O)c1ccc(F)cc1 [Example 78, N-(3-cyclopropylbenzyl)-2-(4-fluoro-N-isopropylphenylsulfonamido)acetamide]",1
7,"CC(C)N(CC(=O)NCc1cc(N2CCC(C(F)(F)F)CC2)ncn1)S(=O)(=O)c1ccc(F)cc1 [Example 80, 2-(4-Fluoro-N-isopropylphenylsulfonamido)-N-((6-(4-(trifluoromethyl)piperidin-1-yl)pyrimidin-4-yl)methyl)acetamide]",0.251
8,"[2H]C([2H])(C(=O)NCc1cc(-c2ccc(C(F)(F)F)nc2)ncn1)N(C(C)C)S(=O)(=O)c1ccc(F)cc1 [Example 83, 2,2-Dideuterio-2-(4-fluoro-N-isopropylphenylsulfonamido)-N-((6-(6-(trifluoromethyl)pyridin-3-yl)pyrimidin-4-yl)methyl)acetamide]",0.058
9,"CC(C)N(CC(=O)NCc1cccc(-c2cnc(N3CCC[C@@H]3C)nc2)c1)S(=O)(=O)c1ccc(F)cc1 (single isomer, unassigned) [79-(S)]",0.038
10,"CC(C)N(CC(=O)NCc1cccc(-c2cnc(N3CCC[C@H]3C)nc2)c1)S(=O)(=O)c1ccc(F)cc1 (single isomer, unassigned) [79-(R)]",0.055
